Laboratory results as given in US20080108894A1, “Methods and Systems of Analyzing Clinical Parameters and Methods of Producing Visual Images” (priority 2004, published 2008).
Entries after “also recorded” stand apart in the source; their conditions may differ.

Columns and labels:
infarcted myocardium [1] = assay: R1 mapping with SI0 map 20 minutes after Gd(DTPA) in dogs 48 h after reperfusion of myocardial infarction; format: in vivo, dog
Protocol: In three dogs (n=3), weighing 18-20 kg, myocardial infarctions (MI) were generated by a 180-minute closed-chest coronary artery occlusion. Forty-eight hours following reperfusion, baseline R10 map and SI0-map (see below) were generated using the inversion-recovery (IR) technique with multiple inversion times (TI) (FIG. 6). Delayed-Enhancement (DE) imaging was carried out exactly 15 minutes after Gd(DTPA) (0.2 mmol/kg) administration. Baseline parametric R10 maps, and corresponding SI0 maps, that cover the left ventricle (LV), in a dog 48 h after myocardial infarction, are shown in FIG. 6. R1 was calculated from the SI vs. TI dependence as detailed herein. The calculated baseline relaxation rate of myocardium was R10=1.03±0.05 s^−1, which was later used for calculating the PIM. For the purpose of generating PIMs, 20 minutes after the administration of Gd(DTPA), high resolution images of the entire heart were acquired with two TIs using the same image localizations and sequence parameters (except the TI) as for the baseline R10 and SI0 maps. Details of selecting the optimum TIs are discussed further below. From these images and from the corresponding SI0 maps, voxel-by-voxel R1 maps were generated. Average R1 values in remote myocardium and infarct core were R1=1.73±0.07 s^−1, and R1=3.22±0.09 s^−1, respectively. R1 in LV chamber blood was R1=2.53±0.05 s^−1. ΔR1 (ΔR1=R1−R10) was calculated automatically for each voxel utilizing the baseline R10 map. Average ΔR1r in the remote viable regions was 0.7±0.07 s^−1, while in the center of the infarct (denoted 100% infarcted) ΔR1c was 2.19±0.09 s^−1. The contribution of any contrast-agent-accumulating infarct islet contributes to the total ΔR1 of that voxel. Therefore, ΔR1 is proportional to the amount of non-viable tissue present in any given voxel. Thus, a percent infarct (PI) scale was created, where the core ΔR1c (maximum R1 enhancement observed in the center of the infarct) was considered 100% whereas the ΔR1r of remote areas was 0%. In the canine model used in the present disclosure, the myocardial infarct was generated by prolonged proximal occlusion of the Left Anterior Descending coronary artery, using an intracoronary balloon catheter. Animals were anesthetized and mechanically ventilated during MRI sessions (using isoflurane). A 1.5 Tesla GE Signa Horizon “Cardiac CV” instrument was used for cardiac MRI. Images were generated in standard consecutive short-axis planes (6 slices covering the entire LV) and one additional three-chamber long-axis view to assess the apex (left ventricular outflow tract view).

infarcted myocardium [2] = assay: R1 mapping (inversion recovery MRI) 24 h and 48 h after PCA in canine reperfused myocardial infarction; format: in vivo, dog; conditions: for Average R1r (R1 in remote regions) / Average ΔR1r (ΔR1 in remote regions): remote myocardium
Excerpt: In FIG. 2, multislice voxel-by-voxel R1 maps (A) and PIMs (B), generated from such images, are shown. The good quality and coregistration of images acquired with varying TI, was confirmed by the R^2 values obtained for the pixel-by-pixel curve-fitting applied to the SI vs. TI dependence. Average R^2 in the myocardium was 0.99±0.005.
Average R10 was 0.98±0.05 s^−1, in agreement with other investigators' findings. […] This proves Gd(ABE-DTTA) to be a PCA suitable for multi-T1 R1 mapping.
In the canine model used in the present disclosure, the myocardial infarct was generated by prolonged proximal occlusion of the Left Anterior Descending coronary artery, using an intracoronary balloon catheter. Animals were anesthetized and mechanically ventilated during MRI sessions (using isoflurane).
A 1.5 Tesla GE Signa Horizon “Cardiac CV” instrument was used for cardiac MRI. Images were generated in standard consecutive short-axis planes (6 slices covering the entire LV) and one additional three-chamber long-axis view to assess the apex (left ventricular outflow tract view).
A 180°-prepared, segmented, fast gradient-echo sequence, was used to determine R1 values of the myocardium using the inversion recovery method. Short axis and long axis images were generated using the following parameters: FOV 300 mm, image matrix 256×256, slice thickness 10 mm, read out flip angle 25°, echo time (TE) 3.32 ms, repetition time (TRp) 7.18 ms, and recycle time (TR) 1200-2000 ms (three R-R intervals, depending on heart rate, but constant throughout an entire given R1 mapping procedure). Inversion times (TI) in the range of 200-1200 ms were used. In theory, 6 different TIs should be sufficient to generate a R1 map. In this disclosure, however, 8-10 TIs were used to ensure accuracy of R1 determination. The R1 values were calculated from the SI vs. TI dependence, applying a three-parameter least-squares curve fitting routine, using the following formula: […]
Since all MRI parameters below reflect the entire volume element in the slice, associated with a given pixel, from this point on the term voxel, rather than pixel, will be used.). The relaxation rate R1 (R1≡1/T1) of each voxel was composed of R10, the myocardial R1 observed in the absence of both infarct and PCA, and ΔR1, the contribution of the PCA present in the voxel:
Using Eq. 2, the R1 map was transformed into a ΔR1 map. The average ΔR1r value of areas remote from the infarct zone (about 600 voxels), was considered representative of 0% infarction.
As a threshold, ΔR1v of all remote voxels where R1v<R1r+2SD, was set to zero.

[3] = 20 minutes after Gd(DTPA) 0.2 mmol/kg
[4] = 20 minutes after Gd(DTPA), ΔR1=R1−R10

Row | Compound | Average R1 in infarct core (infarcted myocardium [1]; [3]) [s⁻¹] | Average R1 in remote myocardium (infarcted myocardium [1]; [3]) [s⁻¹] | R1 in LV chamber blood (infarcted myocardium [1]; [3]) [s⁻¹] | Average ΔR1r in the remote viable regions (infarcted myocardium [1]; [4]) [s⁻¹] | ΔR1c in the center of the infarct (denoted 100% infarcted) (infarcted myocardium [1]; [4]) [s⁻¹] | Average R1c (R1 in infarct core) (infarcted myocardium [2]; 24 h after PCA) [s⁻¹] | Average ΔR1c (ΔR1 in infarct core) (infarcted myocardium [2]; 24 h after PCA) [s⁻¹] | Average R1r (R1 in remote regions) (infarcted myocardium [2]; 24 h after PCA) [s⁻¹] | Average ΔR1r (ΔR1 in remote regions) (infarcted myocardium [2]; 24 h after PCA) [s⁻¹] | Average R1c (R1 in infarct core) (infarcted myocardium [2]; 48 h after PCA) [s⁻¹] | Average ΔR1c (ΔR1 in infarct core) (infarcted myocardium [2]; 48 h after PCA) [s⁻¹] | Average R1r (R1 in remote regions) (infarcted myocardium [2]; 48 h after PCA) [s⁻¹] | Average ΔR1r (ΔR1 in remote regions) (infarcted myocardium [2]; 48 h after PCA) [s⁻¹] | hourly change in R1 in all myocardial areas (infarcted myocardium [2]; between 24 and 48 hours post PCA) | persistence of ΔR1 / agent in the infarct (infarcted myocardium [2]; infarct region, after a single administration) | hourly change in R1 (infarcted myocardium [2]; viable tissue, between 24 and 48 hours post PCA, interpolated) [percent/hour] | rate of decay in the infarct (infarcted myocardium [2]; within the acquisition time frame of about 30-40 minutes)
1 | O=C([O-])CN(CCN(CC(=O)[O-])CC(=O)O)CCN(CC(=O)[O-])CC(=O)O.[Gd+3] [Gd(DTPA)] | 3.22 ± 0.09 | 1.73 ± 0.07 | 2.53 ± 0.05 | 0.7 ± 0.07 | 2.19 ± 0.09 |  |  |  |  |  |  |  |  |  |  |  | 
2 | Gd(ABE-DTTA) |  |  |  |  |  | 2.33 ± 0.5 | 1.21 ± 0.5 | 1.23 ± 0.06 | 0.26 ± 0.03 | 2.31 ± 0.4 | 1.27 ± 0.3 | 1.15 ± 0.08 | 0.18 ± 0.05 | less than one percent of the measured R1 | observable throughout the first week from administration; also recorded: still observable in the infarct region one week after administration | 0.26±0.1 | less than 1 % of R1
